Measured values as given in patent US20210198277A1, “AMINE-SUBSTITUTED ARYL OR HETEROARYL COMPOUNDS” (Epizyme, Inc., priority 2016, published 2021).

Target: T1, EHMT2 (Homo sapiens, UniProt Q96KQ7)
T1 construct: host or cells: MDA-MB-231
T1 sequence (Q96KQ7 1-1210): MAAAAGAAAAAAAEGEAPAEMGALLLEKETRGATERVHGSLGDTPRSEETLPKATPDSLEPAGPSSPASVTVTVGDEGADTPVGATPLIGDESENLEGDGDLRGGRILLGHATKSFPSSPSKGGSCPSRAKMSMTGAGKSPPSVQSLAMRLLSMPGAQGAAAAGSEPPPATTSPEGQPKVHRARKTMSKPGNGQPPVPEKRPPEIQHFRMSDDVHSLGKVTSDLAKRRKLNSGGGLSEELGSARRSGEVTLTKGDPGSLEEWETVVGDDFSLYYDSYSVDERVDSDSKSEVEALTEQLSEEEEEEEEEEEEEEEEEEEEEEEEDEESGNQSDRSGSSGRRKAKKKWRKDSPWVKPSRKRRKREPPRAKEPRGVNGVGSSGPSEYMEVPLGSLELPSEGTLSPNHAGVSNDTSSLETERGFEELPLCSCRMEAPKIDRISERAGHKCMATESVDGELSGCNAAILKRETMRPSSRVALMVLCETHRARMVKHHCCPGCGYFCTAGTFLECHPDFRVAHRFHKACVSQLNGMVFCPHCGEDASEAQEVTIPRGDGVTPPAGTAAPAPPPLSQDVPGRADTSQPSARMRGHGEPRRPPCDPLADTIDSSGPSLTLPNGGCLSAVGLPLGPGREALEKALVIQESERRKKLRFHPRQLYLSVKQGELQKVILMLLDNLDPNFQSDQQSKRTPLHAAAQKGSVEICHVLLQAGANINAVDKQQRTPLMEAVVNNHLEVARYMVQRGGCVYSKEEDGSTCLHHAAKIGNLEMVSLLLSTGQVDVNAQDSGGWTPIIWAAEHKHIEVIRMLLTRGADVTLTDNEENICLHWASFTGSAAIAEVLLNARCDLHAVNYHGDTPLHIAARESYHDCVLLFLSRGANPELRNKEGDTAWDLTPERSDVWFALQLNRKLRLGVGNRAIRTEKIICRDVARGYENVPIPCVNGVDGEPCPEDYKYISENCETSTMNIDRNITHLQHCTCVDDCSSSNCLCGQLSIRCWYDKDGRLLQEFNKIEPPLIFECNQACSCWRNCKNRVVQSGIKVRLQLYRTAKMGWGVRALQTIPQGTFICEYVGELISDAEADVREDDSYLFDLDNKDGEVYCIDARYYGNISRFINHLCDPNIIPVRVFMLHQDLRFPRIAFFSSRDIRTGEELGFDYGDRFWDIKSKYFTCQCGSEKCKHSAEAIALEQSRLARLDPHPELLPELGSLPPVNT
Experiment: MDA-MB-231 H3K9me2 in-cell Western assay (EHMT2 ICW)
Assay type: cell-based
Conditions: Table III; MDA-MB-231 H3K9me2 in-cell Western; read-out: EHMT2 ICW (IC50 μM)
Summary of the method: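 IC50 values came from a variable-slope four-parameter fit on triplicate wells, using % inhibition from the 800/700 nm infrared signal ratio (anti-H3K9me2 versus DRAQ5 DNA stain). Before fixation and immunostaining, MDA-MB-231 cells, 3,000 per well, were exposed to compound for 48 h at 37 °C.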

IC50: 1 to 10 µM
SMILES: CNc1ccnc(Nc2ccc(OC)c(OCC3CCN(CC4CC4)C3)c2)n1 (stereo not shown) [Compound 422, N^2-(3-((1-(cyclopropylmethyl)pyrrolidin-3-yl)methoxy)-4-methoxyphenyl)-N^4-methylpyrimidine-2,4-diamine]
